Data taken from patent publication US11819537B2, “Preventive or therapeutic method for inflammatory skin disease” (Osaka University, priority 2016, dated 2023).

Assays:
[1] = system: TLR7/8 signals (THP-1 cells); test: IL-6 secretion from macrophage cells stimulated with R848 (Example 3); format: cell-based, human; conditions: for TLR7/8 signal suppression effects, MHP1 compared with hMHP4: 30.5 μM each; for TLR7/8 signal suppression effects, MHP1 compared with hMHP4 / increase in the amount of IL-6 secretion by R848: FIG. 6; for TLR7/8 signals / increase in the amount of IL-6 secretion by R848: R848 10 μg/ml; for TLR7/8 signals: conclusion from FIG. 6; for increase in the amount of IL-6 secretion by R848: peptide 30.5 μM, 24 hours, ELISA
Description: The influence of the RANKL peptide on the amount of proinflammatory cytokines (IL-6) secreted from macrophage cells by the stimulation of a TLR7/8 ligand (R848) was examined. The specific examination procedures were as follows.
THP-1 cells (human-derived macrophage cell line) were cultured in a DMEM medium (+4% FBS) containing MHP1 or hMHP4 (final concentration: 30.5 μM) and R848 (final concentration: 10 μg/ml) or a DMEM medium (+4% FBS) containing R848 (final concentration: 10 μg/ml) alone for 24 hours by a standard method. After culturing, the concentration of IL-6 in the medium was measured by the ELISA method.

[2] = system: TLR7/8 signals (MG6 cells); test: Proinflammatory cytokine secretion from microglial cells stimulated with R848 (Example 2); format: cell-based, mouse; conditions: R848 1 μg/ml; for increase in the amount of IL-6 secretion by R848: MHP4 7.6, 15.3 or 30.5 μM, FIG. 5a, 5c; for TLR7/8 signals: conclusion from FIG. 5
Description: The influence of the RANKL peptide on the amount of proinflammatory cytokines (IL-6 and TFNα) secreted from microglial cells by the stimulation of imidazoquinoline resiquimod (R848 produced by Invitrogen), which is a TLR7/8 ligand, was examined. The specific examination procedures were as follows.
MG6 cells (mouse-derived microglial cell line) were cultured in a DMEM medium (+4% FBS) containing MHP1 or MHP4 (final concentration: 7.6, 15.3, or 30.5 μM) and R848 (final concentration: 1 μg/ml) or a DMEM medium (+4% FBS) containing R848 (final concentration: 1 μg/ml) alone for 24 hours by a standard method. After culturing, the concentrations of IL-6 and TNFα in the medium were measured by the ELISA method. In the Examples of the present application, the ELISA method was performed using a kit (Quantikine ELISA Mouse TNF-a or Quantikine ELISA Mouse IL-6, produced by R&D Systems).

[3] = system: psoriatic symptoms caused by the administration of imiquimod (IMQ); test: Imiquimod-induced psoriatic symptoms in mice, MHP4 hydrophilic petrolatum ointment (Example 8); format: in vivo; conditions: MHP4 hydrophilic petrolatum ointment 375 ng/15 mg per mouse applied every day; 5% imiquimod; BALB/c male mice; FIGS. 11 to 14
Description: Specifically, the following procedure was performed according to the dosing schedule shown in FIG. 1 except that the first application of an ointment was performed 6 hours after the first imiquimod application. In Example 1, the RANKL peptide aqueous solution was administered, while a RANKL peptide ointment was administered in this example. As test animals, BALB/c 9-week-old male mice whose back hair was partially removed were prepared. 5% imiquimod (IMQ) was applied to the hair-removed portion in the back and ear of each mouse (62.5 mg per mouse) (day 0 (0 d)). 6 hours later, (1) an MHP4 hydrophilic petrolatum ointment (375 ng (MHP4)/15 mg (hydrophilic petrolatum) per mouse, n=2), hydrophilic petrolatum (control (untreated), n=2), or MCT/BBP (Marduox (tradename) ointment) (15 mg per mouse, n=2) was individually applied to the back and ear. Thereafter, imiquimod and item (1) above were applied every day (from day 1 (1 d)). […] The degree of redness in the back, the degree of white scaling in the back, and the degree of skin thickening in the back were quantified according to the description in the document (van der Fits, L. et al. Imiquimod-induced psoriasis-like skin inflammation in mice is mediated via the IL-23/IL-17 axis. J. Immunol. 182, 5836-45 (2009) (evaluation criteria: none (0), mild (1), moderate (2), severe (3), and very severe (4)). FIGS. 12 to 14 show the results.

[4] = system: psoriatic symptoms caused by the administration of imiquimod (IMQ); test: Imiquimod-induced psoriatic symptoms in mice, MHP1 aqueous solution (Example 1); format: in vivo; conditions: MHP1 aqueous solution 200 μg/100 μL per mouse applied to back and ear every day; 5% imiquimod; BALB/c female mice; FIGS. 2 to 4
Description: As test animals, BALB/c 6-week-old female mice whose back hair was partially removed were prepared. 5% imiquimod (IMQ) was applied to the hair-removed portion in the back and ear of each mouse (62.5 mg per mouse) (day 0 (0 d)). One day later, (1) an MHP1 aqueous solution (200 μg/100 μL per mouse, n=2) or dH2O (control, n=2) was individually applied to the back and ear, followed by the application of (2) 5% imiquimod (IMQ) (62.5 mg per mouse (day 1 (1 d)). Thereafter, items (1) and (2) above were applied every day for 5 days (day 2 to 6 (2 d to 6 d)).
The degree of white scaling in the back was quantified in accordance with the description of the document (van der Fits, L. et al. Imiquimod-induced psoriasis-like skin inflammation in mice is mediated via the IL-23/IL-17 axis. J. Immunol. 182, 5836-45 (2009)) (evaluation criteria: none (0), mild (1), moderate (2), severe (3), and very severe (4)).
Additionally, the ear thickness was measured.

[5] = system: NFκB (p65); test: NFκB (p65) activation in RAW264.7 cells, TransAM NFkB p65 Kit (Example 5); format: cell-based; conditions: MHP1 100 μg/ml, collected after 10 minutes, FIG. 8C
Description: (§1) It has recently been reported that the administration of RANKL protein to mice induces the activation of osteoclasts. Accordingly, the influence of the RANKL peptide on osteoclasts was examined. The specific examination procedures were as follows.
(§2) MHP1 (final concentration: 100 μg/ml) or RANKL protein (final concentration: 10 ng/ml) was added to a medium (DMEM medium (+4% FBS)) in which RAW264.7 cells were cultured, and the cells were collected after 10 minutes and 3 days.
(§3) For the samples collected after 10 minutes, nuclear proteins of the cells were extracted using the Nuclear Extract Kit (Active Motif), and the degree of NFκB (p65) activation was measured by the TransAM NFkB p65 Kit (Active Motif). On the other hand, for the samples collected after 3 days, the mRNA expression levels of NFATc1 and ACP5 were analyzed by real-time RT-PCR.

[6] = system: NFATc1 and ACP5 mRNA; test: Osteoclast-related mRNA expression in RAW264.7 cells, real-time RT-PCR (Example 5); format: cell-based; conditions: MHP1 100 μg/ml, collected after 3 days, FIG. 8A, 8B
Description: as §1, §2, §3

[7] = system: osteoclast precursor cells; test: Osteoclast differentiation, Osteoclast Culture Kit V-2, TRAP staining (Example 6); format: cell-based; conditions: 7 days
Description: Osteoclast Culture Kit V-2 (OSC33, produced by Cosmo Bio Co., Ltd.) was used. According to the manual of the kit, the culturing of osteoclast precursor cells was started in the presence of M-CSF (final concentration: 50 ng/ml) in the A and B groups, and in the presence of M-CSF (final concentration: 50 ng/ml) and MHP1 (final concentration: 30, 50, or 100 μg/ml) in the C and D groups. Thereafter, 24 hours to 7 days after the start of culturing, the A group was cultured in the presence of M-CSF (final concentration: 50 ng/ml), the B group was cultured in the presence of M-CSF (final concentration: 50 ng/ml) and RANKL protein (final concentration: 50 ng/ml), the C group was cultured in the presence of M-CSF (final concentration: 50 ng/ml) and MHP1 (final concentration: 30, 50, or 100 μg/ml), and the D group was cultured in the presence of M-CSF (final concentration: 50 ng/ml), RANKL protein (final concentration: 50 ng/ml), and MHP1 (final concentration: 30, 50, or 100 μg/ml). After culturing, the cells were subjected to TRAP staining and nuclear staining according to a standard method.

[8] = system: MG6 cells; test: Stability of RANKL peptide: cytokine secretion inhibition in LPS-stimulated MG6 cells after storage (Example 7); format: cell-based, mouse
Description: The stability of the RANKL peptide was examined. The specific examination procedures were as follows.
MHP1 was dissolved in water to a concentration of 2 mg/ml, and stored at 4° C. for 208 days. Thereafter, MG6 cells (mouse-derived microglial cell line) were cultured in a DMEM medium (+4% FBS) containing MHP1 (final concentration: 100 μg/ml) and LPS (final concentration: 2 ng/ml) for 24 hours by a standard method. After culturing, the concentrations of IL-6 and TNFα in the medium were measured by the ELISA method.

LMVYVTKTSIKIPSS (listed as Homo sapiens) [hMHP4]
TLR7/8 signal suppression effects, MHP1 compared with hMHP4 [1]: similar | TLR7/8 signals [1]: suppressed the TLR7/8 signals | increase in the amount of IL-6 secretion by R848 [1]: suppressed

LMVYVVKTSIKIPSS (listed as Mus musculus) [MHP4]
increase in the amount of IL-6 secretion by R848 ([2]; MHP1 30.5 μM, 24 hours, ELISA): suppressed | TLR7/8 signals [2]: suppressed the TLR7/8 signals | psoriasis symptoms (back photographs, degree of redness, white scaling, skin thickening) [3]: improved psoriasis symptoms

LMVYVVKTSIKIPSSHNLMKGGSTKNWSGN (listed as Mus musculus) [MHP1]
psoriatic symptoms (back photographs, degree of white scaling, ear thickness) [4]: improved psoriatic symptoms | increase in the amount of IL-6 secretion by R848 ([2]; MHP1 30.5 μM, 24 hours, ELISA): suppressed | increase in the amount of TNFα secretion by R848 ([2]; MHP1 30.5 μM, 24 hours, ELISA, FIG. 5b): suppressed | TLR7/8 signals [2]: suppressed the TLR7/8 signals | TLR7/8 signal suppression effects, MHP1 compared with hMHP4 [1]: similar | TLR7/8 signals [1]: suppressed the TLR7/8 signals | increase in the amount of IL-6 secretion by R848 [1]: suppressed | NFκB (p65) activation [5]: slightly activated | expression of osteoclast-related mRNA (NFATc1, ACP5) [6]: did not promote | differentiation of osteoclasts when MHP1 was added (without RANKL protein) ([7]; M-CSF 50 ng/ml and MHP1 30, 50 or 100 μg/ml, TRAP and nuclear staining, FIG. 9 (b)): did not occur | differentiation of osteoclasts promoted by RANKL ([7]; M-CSF 50 ng/ml, RANKL protein 50 ng/ml and MHP1 30, 50 or 100 μg/ml, TRAP staining, FIG. 9 (a)): inhibited | stability ([8]; 2 mg/ml in water, 4° C., 208 days): high | proinflammatory cytokine (IL-6, TNFα) secretion-inhibiting effect after long-term storage ([8]; MHP1 2 mg/ml in water stored at 4° C. for 208 days, then 100 μg/ml with LPS 2 ng/ml, MG6 cells, 24 hours, FIG. 10): in the same manner as MHP1 before storage
